# Data: patent publication US20240246935A1 (Plexium, Inc., priority 2021, published 2024)
# Columns and labels:
# IKZF2 (Helios) = experiment: IKZF2 reporter degradation assay (HEK 293T IKZF2-mNeonGreen reporter cell line); assay type: cell-based, human; details: 1 μM compound, 24 hour incubation, HEK 293T IKZF2-mNeonGreen reporter
# Excerpt: Polycistronic plasmids were constructed for the mammalian expression of fluorescent reporter fusions of human transcription factors IKZF1 (Ikaros), IKZF2 (Helios), and IKZF3 (Aiolos). The respective protein sequences had their C-terminal end joined to a GGGGS linker repeated three times followed by mNeonGreen, P2A sequence, and mScarlet. The DNA sequences of the open reading frames are as follows:
# IKZF1, IKZF2, and IKZF3 constructs were cloned into the UCOE Hygromycin expression vectors (Millipore Sigma). Reporter constructs were transfected using cationic lipid reagents into adherent HEK 293T cells and stable integrants were selected by treatment with 200 μg/mL hygromycin B. Clonal populations were obtained from the population of stable integrants either by limiting dilution or fluorescence activated cell sorting.
# The clonal stable cell lines were maintained under constant 200 μg/mL hygromycin B selection while being passaged for use in the degradation assays. […] The fluorescence intensity of the IKZF1/2/3-mNeonGreen (FITC channel) and mScarlet (PE channel) reporters were routinely analyzed by flow cytometry to confirm consistent expression levels between experiments.
# The IKZF1/IKZF2/IKZF3 degradation assays were carried out by harvesting the HEK 293T reporter cell lines and resuspending the cells in media formulated for reduced background fluorescence (FluoroBrite; Thermo Fisher). The respective cell lines were seeded at a density of 4000 cells/well into black-walled 384-well optical grade assay tissue culture plates. The cells were incubated overnight at 37° C. to allow for attachment to the assay plate. Dilutions of the compounds were prepared in DMSO from 10 mM compound stocks. The assay plates were treated with appropriate concentrations of the compounds by dispensing the DMSO dilutions in quadruplicate wells with an upper limit of 0.5% final DMSO.
# After 24 hour incubation with the compounds, the assay plates were imaged on an ImageXpress Pico microscopy system (cells maintained at 37° C. during imaging) to obtain the fluorescent readouts. The assay plates were imaged in the FITC and Tetramethylrhodamine (TRITC) channels to obtain the mNeonGreen fluorescence intensity (reporter degradation data) and mScarlet fluorescence intensity (for cell segmentation). 293T-IKZF1 and 293T-IKZF3 reporter cell lines were imaged with exposures of 500 milliseconds (ms) for both FITC and TRITC channels, while the 293T-IKZF2 reporter cell line was imaged with exposures of 1000 ms for FITC and 1250 ms for TRITC. The resulting data was analyzed with Cell Reporter Xpress software using the 2-channel cell scoring analysis with a “percent positive” readout. The TRITC channel was selected for the “nuclei” segmentation with a threshold of 20 while the FITC channel was selected for the “Marker 1” segmentation and a threshold of 100 for the IKZF1 and IKZF3 reporter lines. […] The minimum segmentation width was set to 6 micrometers and the maximum segmentation width was set to 15 micrometers for all cell lines. The DCs calculations were determined by regression to best fit four-parameter logistic curves using GraphPad Prism.
# [1] = target: human E3 ligase component cereblon (CRBN) (Homo sapiens (Human), UniProt Q96SW2); experiment: Cereblon (CRBN) target engagement, NanoBRET TE Intracellular E3 Ligase Assay in transfected HEK-293T cells; details: read-out: CRBN Binding EC50
# Chain of human E3 ligase component cereblon (CRBN) (Q96SW2 whole entry): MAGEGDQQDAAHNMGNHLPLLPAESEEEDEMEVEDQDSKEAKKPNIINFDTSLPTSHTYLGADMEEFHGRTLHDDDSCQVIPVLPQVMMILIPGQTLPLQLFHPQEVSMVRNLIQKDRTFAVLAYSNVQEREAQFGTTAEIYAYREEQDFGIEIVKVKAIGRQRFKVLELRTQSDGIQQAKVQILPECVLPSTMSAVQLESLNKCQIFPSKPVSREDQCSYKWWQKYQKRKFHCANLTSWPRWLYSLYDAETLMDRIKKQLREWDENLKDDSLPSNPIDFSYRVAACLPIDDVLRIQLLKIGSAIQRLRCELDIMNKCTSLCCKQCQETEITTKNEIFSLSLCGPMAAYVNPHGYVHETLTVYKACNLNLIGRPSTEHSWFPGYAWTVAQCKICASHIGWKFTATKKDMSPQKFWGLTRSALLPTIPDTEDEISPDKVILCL
# Chain of human E3 ligase component cereblon (CRBN) (Q16531 whole entry partner): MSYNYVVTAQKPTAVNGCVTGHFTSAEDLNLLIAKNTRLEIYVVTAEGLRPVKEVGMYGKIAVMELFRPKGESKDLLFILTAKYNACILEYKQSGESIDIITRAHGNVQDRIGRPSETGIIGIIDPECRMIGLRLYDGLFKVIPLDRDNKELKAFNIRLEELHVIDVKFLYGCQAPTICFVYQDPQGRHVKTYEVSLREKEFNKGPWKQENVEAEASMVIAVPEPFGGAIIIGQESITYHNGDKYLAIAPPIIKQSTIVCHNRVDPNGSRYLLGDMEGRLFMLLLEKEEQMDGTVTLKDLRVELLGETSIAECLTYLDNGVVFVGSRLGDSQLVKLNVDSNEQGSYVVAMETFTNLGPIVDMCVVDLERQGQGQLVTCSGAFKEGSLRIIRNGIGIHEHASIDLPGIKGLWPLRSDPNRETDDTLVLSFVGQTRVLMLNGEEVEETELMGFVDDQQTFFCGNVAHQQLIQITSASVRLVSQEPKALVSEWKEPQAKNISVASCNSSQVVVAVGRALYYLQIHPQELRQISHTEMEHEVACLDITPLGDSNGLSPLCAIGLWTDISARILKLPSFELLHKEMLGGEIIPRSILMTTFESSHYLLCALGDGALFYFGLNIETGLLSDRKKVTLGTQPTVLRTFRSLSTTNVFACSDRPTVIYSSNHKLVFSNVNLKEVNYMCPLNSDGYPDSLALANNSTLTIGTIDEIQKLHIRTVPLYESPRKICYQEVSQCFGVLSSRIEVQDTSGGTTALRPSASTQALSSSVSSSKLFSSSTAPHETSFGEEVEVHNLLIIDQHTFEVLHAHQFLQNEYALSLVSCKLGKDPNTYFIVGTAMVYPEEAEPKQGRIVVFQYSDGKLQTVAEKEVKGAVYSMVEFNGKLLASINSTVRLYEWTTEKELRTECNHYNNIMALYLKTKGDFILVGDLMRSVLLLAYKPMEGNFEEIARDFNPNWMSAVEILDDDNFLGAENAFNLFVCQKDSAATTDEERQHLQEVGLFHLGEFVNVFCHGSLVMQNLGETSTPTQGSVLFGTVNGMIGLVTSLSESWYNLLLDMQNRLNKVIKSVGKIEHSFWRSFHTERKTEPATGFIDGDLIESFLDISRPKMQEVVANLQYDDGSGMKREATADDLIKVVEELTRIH
# Method: HEK293T cells were harvested ca. 75% confluent with trypsin and plated (500,000 cells/well) in a 6-well tissue culture plate in 2 mL of Dulbecco's Modified Eagle Medium (DMEM)+10% Fetal Bovine Serum (FBS) and incubated overnight at 37° C.
# The NanoLuc-CRBN fusion vector (Nluc-CRBN; Promega) contains the coding region of human E3 ligase component cereblon (CRBN) fused to the C-terminus of the NanoLuc luciferase coding region. A mixture of 10 ng Nluc-CRBN and 990 ng DDB1 Expression Vector (Promega) was added to 125 μL Opti-Minimum Essential Medium (Opti-MEM™; Thermo Fisher) along with 2 μL P3000 reagent (Thermo Fisher) in a 1.5 mL epppendorf tube. This solution was added to Lipofectamine 3000 transfection reagent (5 μL; Thermo Fisher) in Opti-MEM (125 μL), mixed well, and incubated for 15 minutes at room temperature. The transfection mixture was added dropwise to cells and incubated overnight at 37° ° C., 5% CO2. Following transfection, cells were washed once with PBS, and trypsin (250 μL) was added and incubated 30-45 sec to dislodge cells. Complete media (2 mL) was added to resuspend cells to form a single cell suspension. Cells were centrifuged at 320×g for 5 min at room temperature, the supernatant was removed, and the cell pellet resuspended in Opti-MEM (3 mL; wash step repeated×2). After final resuspension in 5 mL Opti-MEM, cells were counted and resuspended at 200,000 cells/mL in Opti-MEM.
# Cereblon target engagement was monitored by Bioluminescence Resonance Energy Transfer (BRET) in transfected HEK-293T cells using the NanoBRET TE Intracellular E3 Ligase Assay (Promega). Briefly, 384-well plates (white opaque plates, Corning 3574, low binding surface) were seeded with transfected HEK-293T cells (38 μL/well). 2 μL of 10 μM CRBN tracer (diluted 1:5 in Tracer Dilution Buffer) was added to each well. Plates were centrifuged at 320×g for 1 min at room temperature. Test compounds were added in a 11-point dilution series (typically 10 μM to […]) using a TECAN D300e Digital Dispenser. Plates were shaken for 2 minutes on a microplate shaker to mix compounds. Plates were centrifuged at 320×g for 1 min at room temperature, and subsequently incubated for 2 hours at 37° C.
# After incubation, plates were allowed to cool to room temperature for 15 minutes. 20 μL of 3× Complete NanoBRET™ Nano-Glo® Substrate plus Inhibitor Solution (Promega, 1:166 Substrate and 1:500 dilution of Extracellular NanoLuc® Inhibitor diluted in Opti-MEM) were added to each well. Plates were incubated with shaking at room temperature for 3 minutes covered with foil. Plates were read on a CLARIOstar microplate reader (BMG LabTech), measuring at 450 nm (donor emission) and 610 nm (acceptor emission). The IC50 values were determined by regression to best fit four-parameter logistic curves using GraphPad Prism.
EC50 [1] [nM],Compound,IKZF2 % Degradation @ 1 μM (IKZF2 (Helios)) [%]
31,"O=C1CCC(N2Cc3cc(O[C@@H]4CCCC[C@@H]4N4CC(O)(c5ccccc5)C4)ccc3C2=O)C(=O)N1 (mixture of isomers) [Compound 97, Rac-3-(5-(((cis)-2-(3-hydroxy-3-phenylazetidin-1-yl)cyclohexyl)oxy)-1-oxoisoindolin-2-yl)piperidine-2,6-dione]",<15
44,"N#Cc1cc(Cl)ccc1C1CN([C@H]2CCCC[C@@H]2Oc2ccc3c(c2)CN(C2CCC(=O)NC2=O)C3=O)C1 (mixture of isomers) [Compound 99, Rac-5-chloro-2-(1-((trans)-2-((2-(2,6-dioxopiperidin-3-yl)-1-oxoisoindolin-5-yl)oxy)cyclohexyl)azetidin-3-yl)benzonitrile]",80.2
33,"N#Cc1cc(F)ccc1C1CN([C@H]2CCCC[C@@H]2Oc2ccc3c(c2)CN(C2CCC(=O)NC2=O)C3=O)C1 (mixture of isomers) [Compound 101, Rac-2-(1-((trans)-2-((2-(2,6-dioxopiperidin-3-yl)-1-oxoisoindolin-5-yl)oxy)cyclohexyl)azetidin-3-yl)-5-fluorobenzonitrile]",79.2
58,"N#Cc1ccccc1C1CN([C@H]2CCCC[C@@H]2Oc2ccc3c(c2)CN(C2CCC(=O)NC2=O)C3=O)C1 (mixture of isomers) [Compound 108, Rac-2-(1-((trans)-2-((2-(2,6-dioxopiperidin-3-yl)-1-oxoisoindolin-5-yl)oxy)cyclohexyl)azetidin-3-yl)benzonitrile]",71.3
37,"N#Cc1ccccc1C1CN([C@H]2CCCC[C@H]2Oc2ccc3c(c2)CN(C2CCC(=O)NC2=O)C3=O)C1 (mixture of isomers) [Compound 109, Rac-2-(1-((cis)-2-((2-(2,6-dioxopiperidin-3-yl)-1-oxoisoindolin-5-yl)oxy)cyclohexyl)azetidin-3-yl)benzonitrile]",<15
12,"N#Cc1ccc(C2CN([C@@H]3CCCC[C@@H]3Oc3ccc4c(c3)CN(C3CCC(=O)NC3=O)C4=O)C2)c(F)c1 (mixture of isomers) [Compound 115, Rac-4-(1-((cis)-2-((2-(2,6-dioxopiperidin-3-yl)-1-oxoisoindolin-5-yl)oxy)cyclohexyl)azetidin-3-yl)-3-fluorobenzonitrile]",63.6
24,"N#Cc1ccc(C2CN([C@H]3CCCC[C@@H]3Oc3ccc4c(c3)CN(C3CCC(=O)NC3=O)C4=O)C2)c(F)c1 (mixture of isomers) [Compound 116, Rac-4-(1-((trans)-2-((2-(2,6-dioxopiperidin-3-yl)-1-oxoisoindolin-5-yl)oxy)cyclohexyl)azetidin-3-yl)-3-fluorobenzonitrile]",<15
8,"N#Cc1ccc(C2CN([C@H]3CCCC[C@@H]3Oc3ccc4c(c3)CN(C3CCC(=O)NC3=O)C4=O)C2)cc1F (mixture of isomers) [Compound 119, Rac-4-(1-((trans)-2-((2-(2,6-dioxopiperidin-3-yl)-1-oxoisoindolin-5-yl)oxy)cyclohexyl)azetidin-3-yl)-2-fluorobenzonitrile]",63.8
20,"N#Cc1ccc(C2CN([C@@H]3CCCC[C@@H]3Oc3ccc4c(c3)CN(C3CCC(=O)NC3=O)C4=O)C2)cc1F (mixture of isomers) [Compound 122, rac-4-(1-((cis)-2-((2-(2,6-dioxopiperidin-3-yl)-1-oxoisoindolin-5-yl)oxy)cyclohexyl)azetidin-3-yl)-2-fluorobenzonitrile]",<15
25,"N#Cc1cc(Cl)ccc1C1CN([C@@H]2CCCC[C@@H]2Oc2ccc3c(c2)CN(C2CCC(=O)NC2=O)C3=O)C1 (single isomer, unassigned) [Compound 37]",<15
52,"N#Cc1cc(Cl)ccc1C1CN([C@H]2CCCC[C@@H]2Oc2ccc3c(c2)CN(C2CCC(=O)NC2=O)C3=O)C1 (single isomer, unassigned) [Compound 38]",84.9
8,"N#Cc1cc(Cl)ccc1C1CN([C@H]2CCCC[C@@H]2Oc2ccc3c(c2)CN(C2CCC(=O)NC2=O)C3=O)C1 (single isomer, unassigned) [Compound 39]",84.6
61,"O=C1CCC(N2Cc3c(ccc(O[C@H]4CCCC[C@@H]4N4CC(c5ccccc5)C4)c3Cl)C2=O)C(=O)N1 (single isomer, unassigned) [Compound 41]",<15
43,"O=C1CCC(N2Cc3c(ccc(O[C@H]4CCCC[C@@H]4N4CC(c5ccccc5)C4)c3Cl)C2=O)C(=O)N1 (single isomer, unassigned) [Compound 42]",<15
42,"N#Cc1cc(F)ccc1C1CN([C@@H]2CCCC[C@H]2Oc2ccc3c(c2)CN(C2CCC(=O)NC2=O)C3=O)C1 (single isomer, unassigned) [Compound 43]",<15
65,"N#Cc1cc(F)ccc1C1CN([C@H]2CCCC[C@@H]2Oc2ccc3c(c2)CN(C2CCC(=O)NC2=O)C3=O)C1 (single isomer, unassigned) [Compound 44]",85.6
22,"N#Cc1cc(F)ccc1C1CN([C@H]2CCCC[C@@H]2Oc2ccc3c(c2)CN(C2CCC(=O)NC2=O)C3=O)C1 (single isomer, unassigned) [Compound 45]",88
5,"N#Cc1ccc(C2CN([C@H]3CCCC[C@@H]3Oc3ccc4c(c3)CN(C3CCC(=O)NC3=O)C4=O)C2)c(Cl)c1 (single isomer, unassigned) [Compound 47]",86.7
45,"N#Cc1ccc(C2CN([C@H]3CCCC[C@@H]3Oc3ccc4c(c3)CN(C3CCC(=O)NC3=O)C4=O)C2)c(Cl)c1 (single isomer, unassigned) [Compound 48]",78.9
18,"O=C1CCC(N2Cc3cc(O[C@H]4CCCC[C@@H]4N4CC(c5ccc(F)cc5)C4)ccc3C2=O)C(=O)N1 (single isomer, unassigned) [Compound 51]",74.2
29,"O=C1CCC(N2Cc3cc(O[C@H]4CCCC[C@@H]4N4CC(c5ccccc5)C4)c(F)cc3C2=O)C(=O)N1 (single isomer, unassigned) [Compound 53]",86.9
